# Reference: patent publication US12629364B2, “Methods of treating cancers overexpressing CARM1 with EZH2 inhibitors and platinum-based antineoplastic drugs” (The Wistar Institute of Anatomy and Biology, priority 2016, dated 2026)
# Entries after “also recorded” stand apart in the source; their conditions may differ.
# Legend:
# [1] = molecular target: T1, EZH2 (Homo sapiens, UniProt Q15910); assay: H3K27Me3 / EZH2 immunoblot in A1847 cells; format: cell-based; details: 72 hours, read-out: inhibition of the enzymatic activity of EZH2 as indicated by decrease in H3K27Me3 levels
# T1 construct: endogenous in cells; host or cells: A1847 human epithelial ovarian cancer cells
# Description: FIG. 32 illustrates that the EZH2 inhibitor GSK 126 decreases H3K27Me3 levels in a dose-dependent manner. A1847 cells were treated with the indicated concentrations of GSK126 for 72 hours and examined for expression of the indicated proteins by immunoblot. Expression of histone H3 and β-actin was used as a loading control.
# Small molecules used in the epigenetic screen were obtained from Structural Genomics Consortium or The Wistar Institute Molecular Screening Facility. GSK126 was obtained from Active Biochem or Xcess Biosciences. Antibodies were obtained from: mouse anti-CARM1 (Cell Signaling, Cat. No: 12495, 1:1000 for immunoblotting), goat anti-BAF155 (Santa Cruz, Cat. No: SC9746, 1:1000 for immunoblotting), rabbit anti-methylated R1064 BAF155 (Millipore, Cat. No: ABE1339, 1:1000 for immunoblotting), rabbit anti-EZH2 (Cell Signaling, Cat. No: 5246, 1:1000 for immunoblotting), rabbit anti-cleaved PARP p85 (Promega, Cat. No: G7341, 1:1000 for immunoblotting), mouse anti-Ki67 (Cell Signaling, Cat. No: 9449, 1:500 for IHC), rabbit anti-cleaved caspase 3 (Cell Signaling, Cat. No: 9661, 1:1000 for immunoblotting and 1:50 for IHC), rabbit anti-H3K27Me3 (Cell Signaling, Cat. No: 9733, 1:1000 for immunoblotting and 1:100 for IHC), mouse anti-β-actin (Sigma, Cat. No: A1978, 1:20,000 for immunoblotting), rabbit anti-RNA pol II (Santa Cruz, Cat. No: sc-899). […]
# [2] = test system: HOSE or FTE cells; assay: Colony formation assay, normal HOSE and FTE cells; format: cell-based, Human; details: 10 μM
# Description: FIG. 33 illustrates relative growth of the indicated HOSE, FTE, and EOC cancer cell lines with high or low CARM1 expression treated with 10 μM GSK126 or vehicle in a colony formation assay as determined by NIH Image J quantification.
# 500 to 5,000 cell were plated into a 24 well tissue culture plate and treated with the indicated compounds. Medium was changed every three days with appropriate drug doses for 12 days or until control wells became confluent. Colonies were washed twice with PBS and fixed with 10% methanol and 10% acetic acid in distilled water. Fixed colonies were stained with 0.005% crystal violet. Integrated density was measured using NIH ImageJ software.
# [3] = test system: promoter regions of the human DAB2, DLC1, NOXA and TIMP3 genes; assay: ChIP-qPCR at target gene promoters; format: cell-based; details: A1847 cells
# Text: FIGS. 58 to 61 illustrate the results of a ChIP analysis using anti-EZH2 (FIG. 58), anti-H3K27Me3 (FIG. 59), anti-BAF155 (FIG. 60), or anti-RNA Pol II (FIG. 61) antibodies. An isotype matched IgG was used as a negative control. ChIP products were subjected to qPCR analysis using primers specific for the promoter regions of the human DAB2, DLC1, and NOXA genes. Data is representative of three independent experiments. *p<0.001 compared with IgG controls and #p<0.001 compared with parental controls.
# FIGS. 62 to 65 illustrate the results of a ChIP analysis in parental control and CARM1 knockout A1847 cells treated with 10 μM GSK 126 or vehicle controls. The cells were subjected to ChIP analysis using anti-EZH2 (FIG. 62), anti-H3K27Me3 (FIG. 63), anti-BAF155 (FIG. 64), or anti-RNA Pol II (FIG. 65) antibodies. An isotype-matched IgG was used as a negative control. ChIP products were subjected to qPCR analysis using primers specific for the promoter regions of the human TIMP3 genes. Mean of three independent experiments with SEM. *p<0.001 compared with controls.
# ChIP was performed as described in Tu et al. Developmental Cell (2011) 21:1077-91. The following antibodies were used to perform ChIP: anti-H3K27Me3 (Cell Signaling, Cat. No: 9733), anti-BAF155 (Santa Cruz, Cat. No: sc-9746), anti-RNA polymerase II (Santa Cruz, Cat. No: sc-899) or anti-EZH2 (Cell Signaling, Cat. No: 5246). An isotype matched IgG was used as a negative control. ChIP DNA was analyzed by quantitative PCR against the promoter of the indicated genes using the following primers: DAB2 Forward: 5′-[…]-3′ (SEQ ID NO: 10) and DAB2 Reverse: 5′-[…]-3′ (SEQ ID NO: 11); DLC1 Forward: 5′-[…]-3′ (SEQ ID NO: 12) and DLC1 Reverse: 5′-[…]-3′ (SEQ ID NO: 13); NOXA Forward: 5′-[…]-3′ (SEQ ID NO: 14) and NOXA Reverse: 5′-[…]-3′ (SEQ ID NO: 15); TIMP3 Forward: 5′-[…]-3′ (SEQ ID NO: 16) and TIMP3 Reverse: 5′-[…]-3′ (SEQ ID NO: 17).
# [4] = test system: tumors formed by CARM1 knockout A1847 cells; assay: Subcutaneous xenograft, CARM1 knockout A1847 cells; format: in vivo, NSG mice; details: 50 mg/kg daily
# Description: FIGS. 73 to 75 illustrate that EZH2 inhibition suppressed the growth of CARM1-expressing ovarian tumors in vivo. FIG. 73 illustrates images of tumors dissected from control or GSK126 treated mice. CARM1-high A1847 cells were injected subcutaneously into immunocompromised NSG mice (n=5/group). Tumors were allowed to establish for one week before the mice were randomized into two different treatment groups. Mice were treated with vehicle control or GSK126 (50 mg/kg daily) for an additional three weeks. At the end of treatment, the mice were euthanized. Bar=1 cm. FIG. 74 illustrates a difference in tumor size measured as a surrogate for tumor burden from the control and GSK 126 treated mice at the indicated time point. FIG. 75 illustrates a difference in tumor weight measured as a surrogate for tumor burden from control and GSK 126-treated mice. The mice were injected with CARM1 knockout A1847 cells.
# The protocols were approved by the Institutional Animal Care and Use Committee (IACUC). 5×10^6 control A1847 or A1847 CARM1 knockout cells were unilaterally injected subcutaneously into 6-8-week old female immunocompromised NSG mice (n=5 per group). […] Tumor size was measured every 3 days for 3 weeks. At end of the experiments, tumors were surgically dissected and tumor burden was calculated based on tumor weight.
# [5] = clinical trials for hematopoietic malignancies; cited from earlier work
# T1 sequence (Q15910 whole entry): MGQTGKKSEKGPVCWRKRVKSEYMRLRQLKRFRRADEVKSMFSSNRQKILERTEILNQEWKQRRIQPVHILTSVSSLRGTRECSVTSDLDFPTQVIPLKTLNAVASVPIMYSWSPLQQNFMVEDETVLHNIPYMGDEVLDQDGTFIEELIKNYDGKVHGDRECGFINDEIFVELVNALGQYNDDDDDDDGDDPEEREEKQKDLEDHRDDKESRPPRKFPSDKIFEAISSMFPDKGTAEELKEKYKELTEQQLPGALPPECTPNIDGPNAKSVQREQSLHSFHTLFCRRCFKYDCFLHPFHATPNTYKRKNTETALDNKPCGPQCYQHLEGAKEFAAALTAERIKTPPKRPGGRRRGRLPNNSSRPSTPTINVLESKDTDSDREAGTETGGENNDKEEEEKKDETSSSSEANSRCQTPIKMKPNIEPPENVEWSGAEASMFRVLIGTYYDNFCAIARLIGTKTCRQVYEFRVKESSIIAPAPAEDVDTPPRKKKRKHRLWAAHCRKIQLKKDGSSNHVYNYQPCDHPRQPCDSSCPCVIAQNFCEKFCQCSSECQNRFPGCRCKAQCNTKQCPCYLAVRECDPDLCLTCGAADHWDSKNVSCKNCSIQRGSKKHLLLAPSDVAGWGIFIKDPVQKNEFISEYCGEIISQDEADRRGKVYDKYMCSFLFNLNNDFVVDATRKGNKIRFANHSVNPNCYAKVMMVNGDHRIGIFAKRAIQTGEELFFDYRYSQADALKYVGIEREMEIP
# T1 sequence (Q15022 whole entry partner): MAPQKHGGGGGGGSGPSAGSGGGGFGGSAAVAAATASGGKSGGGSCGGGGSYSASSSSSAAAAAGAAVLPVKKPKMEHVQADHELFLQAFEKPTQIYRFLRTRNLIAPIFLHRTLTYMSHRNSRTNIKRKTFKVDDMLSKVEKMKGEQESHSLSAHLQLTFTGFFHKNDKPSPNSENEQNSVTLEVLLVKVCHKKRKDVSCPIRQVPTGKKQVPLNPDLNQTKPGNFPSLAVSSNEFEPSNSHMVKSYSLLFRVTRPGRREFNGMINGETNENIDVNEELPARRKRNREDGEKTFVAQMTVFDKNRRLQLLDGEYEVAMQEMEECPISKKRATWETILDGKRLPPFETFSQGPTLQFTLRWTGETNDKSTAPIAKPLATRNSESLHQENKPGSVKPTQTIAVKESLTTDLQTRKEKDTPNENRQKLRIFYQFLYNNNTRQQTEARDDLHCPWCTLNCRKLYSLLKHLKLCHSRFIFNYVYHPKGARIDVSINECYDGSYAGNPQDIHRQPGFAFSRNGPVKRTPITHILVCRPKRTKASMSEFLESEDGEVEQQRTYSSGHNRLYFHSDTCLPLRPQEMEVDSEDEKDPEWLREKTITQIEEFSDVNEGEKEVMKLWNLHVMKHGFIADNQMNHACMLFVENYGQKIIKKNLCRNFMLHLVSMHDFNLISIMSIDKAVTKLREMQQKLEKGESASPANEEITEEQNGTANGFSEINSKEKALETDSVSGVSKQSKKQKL
# T1 sequence (O75530 whole entry partner): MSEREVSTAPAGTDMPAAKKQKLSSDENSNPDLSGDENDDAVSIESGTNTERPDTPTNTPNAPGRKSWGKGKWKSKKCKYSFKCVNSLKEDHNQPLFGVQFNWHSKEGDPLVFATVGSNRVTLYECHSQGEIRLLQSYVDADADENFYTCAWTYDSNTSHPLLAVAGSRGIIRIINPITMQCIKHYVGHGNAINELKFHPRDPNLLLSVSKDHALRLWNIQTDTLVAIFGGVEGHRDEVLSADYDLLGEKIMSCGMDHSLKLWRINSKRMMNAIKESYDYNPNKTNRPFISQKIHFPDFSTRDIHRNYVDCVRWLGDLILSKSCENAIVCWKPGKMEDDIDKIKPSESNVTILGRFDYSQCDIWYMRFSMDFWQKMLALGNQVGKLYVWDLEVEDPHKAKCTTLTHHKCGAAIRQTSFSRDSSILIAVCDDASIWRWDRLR
compound,measurement,setting,value
"CC[C@H](C)n1cc(C)c2c(C(=O)NCc3c(C)cc(C)[nH]c3=O)cc(-c3ccc(N4CCNCC4)nc3)cc21 [GSK126, (S)-1-(sec-butyl)-N-((4,6-dimethyl-2-oxo-1,2-dihydropyridin-3-yl)methyl)-3-methyl-6-(6-(piperazin-1-yl)pyridin-3-yl)-1H-indole-4-carboxamide]",inhibition at 10 µM,[1],> 95%
same,growth of normal cells,[2],did not affect the growth of either HOSE or FTE cells
same,association of BAF155 and Pol II with the TIMP3 promoter,[3]; 10 μM,CARM1 KO but not EZH2 inhibitor GSK 126 treatment decreased the association
same,EZH2's association with its target genes,"[3]; DAB2, DLC1, NOXA loci",without affecting EZH2's association with its target genes
same,H3K27Me3 occupancy of target genes,"[3]; DAB2, DLC1, NOXA loci",decreased H3K27Me3 occupancy
same,tumor growth,[4],failed to inhibit the growth
same,tolerability in clinical trials,[5],used safely in clinical trials; also recorded: well-tolerated with limited toxicity
